Laboratory results as given in the CheMixHub ionic liquid set.

Test: xn = mol fraction of the nth substance listed
Details: 100 kPa

CCCCCCCC[n+]1ccccc1.[Br-] + CC(C)C[C@H](N)C(=O)O + O
Details | electrical conductivity [S/m]
298.15 K, x2 = 0.001786, x1 = 0.006987 | 1.66
298.15 K, x2 = 0.001787, x1 = 0.006277 | 1.56
298.15 K, x2 = 0.001787, x1 = 0.006604 | 1.61
298.15 K, x2 = 0.001788, x1 = 0.005918 | 1.51
298.15 K, x2 = 0.001789, x1 = 0.005535 | 1.45
298.15 K, x2 = 0.00179, x1 = 0.00464 | 1.31
298.15 K, x2 = 0.00179, x1 = 0.005107 | 1.38
298.15 K, x2 = 0.001791, x1 = 0.004127 | 1.23
298.15 K, x2 = 0.001792, x1 = 0.003579 | 1.11
298.15 K, x2 = 0.001793, x1 = 0.002934 | 0.956
298.15 K, x2 = 0.001795, x1 = 0.001935 | 0.69
298.15 K, x2 = 0.001795, x1 = 0.002302 | 0.791
298.15 K, x2 = 0.001796, x1 = 0.001485 | 0.558
298.15 K, x2 = 0.001797, x1 = 0.0009595 | 0.394
303.15 K, x2 = 0.0008942, x1 = 0.006659 | 1.8
303.15 K, x2 = 0.0008943, x1 = 0.006555 | 1.79
303.15 K, x2 = 0.0008945, x1 = 0.006292 | 1.76
303.15 K, x2 = 0.0008949, x1 = 0.005925 | 1.71
303.15 K, x2 = 0.0008952, x1 = 0.005533 | 1.65
303.15 K, x2 = 0.0008956, x1 = 0.005102 | 1.58
303.15 K, x2 = 0.000896, x1 = 0.004627 | 1.5
303.15 K, x2 = 0.0008965, x1 = 0.00412 | 1.4
303.15 K, x2 = 0.000897, x1 = 0.003563 | 1.26
303.15 K, x2 = 0.0008975, x1 = 0.002936 | 1.1
303.15 K, x2 = 0.0008982, x1 = 0.002246 | 0.893
303.15 K, x2 = 0.0008986, x1 = 0.001776 | 0.741
303.15 K, x2 = 0.000899, x1 = 0.001323 | 0.582
303.15 K, x2 = 0.0008994, x1 = 0.0008492 | 0.411
303.15 K, x2 = 0.001786, x1 = 0.006976 | 1.88
303.15 K, x2 = 0.001787, x1 = 0.006268 | 1.76
303.15 K, x2 = 0.001787, x1 = 0.006595 | 1.81
303.15 K, x2 = 0.001788, x1 = 0.005909 | 1.69
303.15 K, x2 = 0.001789, x1 = 0.005527 | 1.63
303.15 K, x2 = 0.00179, x1 = 0.004633 | 1.47
303.15 K, x2 = 0.00179, x1 = 0.0051 | 1.56
303.15 K, x2 = 0.001791, x1 = 0.00412 | 1.37
303.15 K, x2 = 0.001792, x1 = 0.003575 | 1.24
303.15 K, x2 = 0.001793, x1 = 0.002931 | 1.07
303.15 K, x2 = 0.001795, x1 = 0.001932 | 0.767
303.15 K, x2 = 0.001795, x1 = 0.002298 | 0.88
303.15 K, x2 = 0.001796, x1 = 0.001483 | 0.619
303.15 K, x2 = 0.001797, x1 = 0.0009576 | 0.441
308.15 K, x2 = 0.0008942, x1 = 0.00665 | 2.05
308.15 K, x2 = 0.0008943, x1 = 0.006544 | 2.03
308.15 K, x2 = 0.0008945, x1 = 0.006283 | 1.98
308.15 K, x2 = 0.0008949, x1 = 0.005916 | 1.91
308.15 K, x2 = 0.0008952, x1 = 0.005524 | 1.83
308.15 K, x2 = 0.0008956, x1 = 0.005093 | 1.76
308.15 K, x2 = 0.000896, x1 = 0.00462 | 1.66
308.15 K, x2 = 0.0008965, x1 = 0.004115 | 1.53
308.15 K, x2 = 0.000897, x1 = 0.003557 | 1.39
308.15 K, x2 = 0.0008975, x1 = 0.002933 | 1.2
308.15 K, x2 = 0.0008982, x1 = 0.002244 | 0.971
308.15 K, x2 = 0.0008986, x1 = 0.001775 | 0.809
308.15 K, x2 = 0.000899, x1 = 0.001321 | 0.643
308.15 K, x2 = 0.0008994, x1 = 0.0008474 | 0.461
308.15 K, x2 = 0.001786, x1 = 0.006965 | 2.11
308.15 K, x2 = 0.001787, x1 = 0.006586 | 2.04
308.15 K, x2 = 0.001788, x1 = 0.0059 | 1.9
308.15 K, x2 = 0.001788, x1 = 0.006259 | 1.97
308.15 K, x2 = 0.001789, x1 = 0.005518 | 1.82
308.15 K, x2 = 0.00179, x1 = 0.004626 | 1.64
308.15 K, x2 = 0.00179, x1 = 0.005091 | 1.73
308.15 K, x2 = 0.001791, x1 = 0.004114 | 1.51
308.15 K, x2 = 0.001792, x1 = 0.003568 | 1.37
308.15 K, x2 = 0.001793, x1 = 0.002925 | 1.17
308.15 K, x2 = 0.001795, x1 = 0.00193 | 0.836
308.15 K, x2 = 0.001795, x1 = 0.002295 | 0.962
308.15 K, x2 = 0.001796, x1 = 0.001481 | 0.683
308.15 K, x2 = 0.001797, x1 = 0.0009558 | 0.483
